Results from ChEMBL document CHEMBL5126497, “2-Difluoromethylpyridine as a bioisosteric replacement of pyridine-N-oxide: the case of quorum sensing inhibitors” (RSC Med Chem, 2021).
Calls of active or inactive are those of the source. The rule behind the calls is not given here.

Assays:
[1] = Inhibition of quorum sensing system in Pseudomonas aeruginosa transfected with lasB-gfp
Pseudomonas aeruginosa = assay: Inhibition of biofilm formation in Pseudomonas aeruginosa at 100 uM measured after 48 hrs relative to control; type: functional
[2] = Inhibition of quorum sensing system in Chromobacterium violaceum ATCC 31352 assessed as reduction in violacein production at 100 uM relative to control
Homo sapiens = species on record: Homo sapiens; assay: Activation of protease (unknown origin); conditions: filed as activator

Row | SMILES | inhibition [1] | IC50 [1] [µM] | inhibition [2] [%] | Activity (Homo sapiens) | inhibition at 100 µM (Pseudomonas aeruginosa) [%]
1 | COC(=O)c1ccncc1C(F)F | Active | – | – | – | –
2 | FC(F)c1ccccn1 | Active | – | – | – | –
3 | O=[N+]([O-])c1cc[n+]([O-])cc1 | – | 33 | 37.5 | Active | 71
4 | N#Cc1cc[n+]([O-])cc1 | Active | – | – | – | –
5 | FC(F)c1cccnc1 | Active | – | – | – | –
6 | COC(=O)c1ccnc(C(F)F)c1 | – | 27 | 59 | Active | 75
7 | FC(F)c1ccncc1 | Active | – | – | – | –

The next lines start with results.

Row | inhibition [1] | IC50 [1] [µM] | inhibition [2] [%] | Activity (Homo sapiens) | SMILES | inhibition at 100 µM (Pseudomonas aeruginosa) [%]
8 | Active | – | – | – | FC(F)c1cc(Oc2ccccc2)ccn1 | –
9 | Active | – | – | – | FC(F)c1ccc2ccccc2n1 | –
10 | Active | – | – | – | FC(F)c1nccc2ccccc12 | –
11 | – | 19 | 66 | Active | N#Cc1ccnc(C(F)F)c1 | 85
12 | Active | – | – | – | FC(F)c1cc(Cc2ccc(Cl)cc2)ccn1 | –
13 | Active | – | – | – | FC(F)c1cc(-c2ccccc2)ccn1 | –
14 | – | 35 | 57 | Active | O=C(c1ccc(Cl)cc1)c1ccnc(C(F)F)c1 | 73
